Measurements as given in PubChem BioAssay AID330 (DTP/NCI, 2004).
“And” between values parts separate entries of the source, which are not always exact repeats. Identical values can stand only once. Inconclusive results and toxic doses are left out.

System: P388 leukemia ip, CD2F1 mice, survival T/C
Assay: NCI In Vivo Anticancer Drug Screen. Data for tumor model P388 Leukemia (intraperitoneal) in CD2F1 (CDF1) mice
Conditions: endpoint: median survival time, higher = longer survival
Outline: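 Mice carrying the transplanted tumor received test compound or vehicle. Survival was recorded in each group, and the value is the treated-group measurement divided by that of the vehicle-treated control group.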

[1] = dose: 50.0 mg/kg/injection, schedule: Q01DX009 (ip), vehicle: saline with Tween-80
[2] = dose: 100.0 mg/kg/injection, schedule: Q01DX009 (ip), vehicle: saline with Tween-80

N[C@@H](Cc1ccc(N(CCCl)CCCl)cc1)C(=O)O
T/C (dose: 0.25 mg/kg/injection, schedule: Q01DX009 (ip), vehicle: saline): 152 % of control
T/C (dose: 0.25 mg/kg/injection, schedule: Q01DX009 (ip), vehicle: suspension in saline): 117 % of control
T/C (dose: 0.25 mg/kg/injection, schedule: Q03HX008 (ip), vehicle: saline): 165 % of control
T/C (dose: 0.38 mg/kg/injection, schedule: Q01DX005 (ip), vehicle: saline): 154 % of control
T/C (dose: 0.5 mg/kg/injection, schedule: Q01DX005 (ip), vehicle: saline): 153 % of control and 189 % of control
T/C (dose: 0.5 mg/kg/injection, schedule: Q01DX009 (ip), vehicle: saline): 163 % of control and 170 % of control
T/C (dose: 0.5 mg/kg/injection, schedule: Q01DX009 (ip), vehicle: suspension in saline): 123 % of control
T/C (dose: 0.5 mg/kg/injection, schedule: Q03HX008 (ip), vehicle: saline): 190 % of control
T/C (dose: 0.5 mg/kg/injection, schedule: Q04DX003 (ip), vehicle: water): 150 % of control
T/C (dose: 0.54 mg/kg/injection, schedule: Q01DX009 (ip), vehicle: saline): 175 % of control
T/C (dose: 0.75 mg/kg/injection, schedule: Q01DX005 (ip), vehicle: saline): 172 % of control
T/C (dose: 0.75 mg/kg/injection, schedule: Q04DX003 (ip), vehicle: saline): 150 % of control
T/C (dose: 0.9 mg/kg/injection, schedule: Q01DX009 (ip), vehicle: saline): 193 % of control
T/C (dose: 1.0 mg/kg/injection, schedule: Q01DX005 (ip), vehicle: water): 167 % of control
T/C (dose: 1.0 mg/kg/injection, schedule: Q01DX009 (ip), vehicle: Klucel (hydroxypropylcellulose) (HPC)): 222 % of control
T/C (dose: 1.0 mg/kg/injection, schedule: Q01DX009 (ip), vehicle: saline): 193 % of control and 209 % of control and 227 % of control
T/C (dose: 1.0 mg/kg/injection, schedule: Q01DX009 (ip), vehicle: suspension in saline): 163 % of control
T/C (dose: 1.0 mg/kg/injection, schedule: Q04DX003 (ip), vehicle: saline): 176 % of control
T/C (dose: 1.0 mg/kg/injection, schedule: Q04DX003 (ip), vehicle: water): 162 % of control
T/C (dose: 1.25 mg/kg/injection, schedule: Q04DX003 (ip), vehicle: saline): 176 % of control
T/C (dose: 1.25 mg/kg/injection, schedule: Q04DX003 (ip), vehicle: water): 158 % of control and 200 % of control
T/C (dose: 1.25 mg/kg/injection, schedule: Q04DX003 (iv), vehicle: saline): 124 % of control
T/C (dose: 1.5 mg/kg/injection, schedule: Q01DX005 (ip), vehicle: saline): 203 % of control
T/C (dose: 1.5 mg/kg/injection, schedule: Q01DX009 (ip), vehicle: Klucel (hydroxypropylcellulose) (HPC)): 101 % of control
T/C (dose: 1.5 mg/kg/injection, schedule: Q01DX009 (ip), vehicle: saline): 227 % of control
T/C (dose: 1.5 mg/kg/injection, schedule: Q04DX003 (ip), vehicle: Klucel (hydroxypropylcellulose) (HPC)): 225 % of control
T/C (dose: 1.5 mg/kg/injection, schedule: Q04DX003 (ip), vehicle: saline): 174 % of control
T/C (dose: 1.62 mg/kg/injection, schedule: Q04DX003 (ip), vehicle: saline): 180 % of control
T/C (dose: 1.62 mg/kg/injection, schedule: Q04DX003 (ip), vehicle: water): 191 % of control
T/C (dose: 1.7 mg/kg/injection, schedule: Q04DX003 (ip), vehicle: saline): 174 % of control
T/C (dose: 1.94 mg/kg/injection, schedule: Q04DX002 (ip), vehicle: saline): 190 % of control and 192 % of control and 206 % of control
T/C (dose: 1.94 mg/kg/injection, schedule: Q04DX003 (ip), vehicle: saline): 186 % of control
T/C (dose: 2.0 mg/kg/injection, schedule: Q01DX009 (ip), vehicle: saline): 236 % of control and 254 % of control
T/C (dose: 2.0 mg/kg/injection, schedule: Q01DX009 (ip), vehicle: suspension in saline): 174 % of control and 221 % of control
T/C (dose: 2.0 mg/kg/injection, schedule: Q04DX003 (ip), vehicle: saline): 196 % of control and 199 % of control and 200 % of control
T/C (dose: 2.0 mg/kg/injection, schedule: Q04DX003 (ip), vehicle: water): 189 % of control
T/C (dose: 2.2 mg/kg/injection, schedule: Q01DX005 (ip), vehicle: saline): 165 % of control and 203 % of control
T/C (dose: 2.5 mg/kg/injection, schedule: Q01DX001 (ip), vehicle: Klucel (hydroxypropylcellulose) (HPC)): 207 % of control
T/C (dose: 2.7 mg/kg/injection, schedule: Q04DX003 (ip), vehicle: saline): 194 % of control and 250 % of control
T/C (dose: 2.7 mg/kg/injection, schedule: Q04DX003 (ip), vehicle: water): 233 % of control
T/C (dose: 3.0 mg/kg/injection, schedule: Q04DX003 (ip), vehicle: Klucel (hydroxypropylcellulose) (HPC)): 119 % of control
T/C (dose: 3.0 mg/kg/injection, schedule: Q04DX003 (ip), vehicle: saline): 196 % of control
T/C (dose: 3.24 mg/kg/injection, schedule: Q04DX002 (ip), vehicle: saline): 202 % of control and 213 % of control and 243 % of control
T/C (dose: 3.24 mg/kg/injection, schedule: Q04DX003 (ip), vehicle: saline): 220 % of control and 227 % of control
T/C (dose: 3.6 mg/kg/injection, schedule: Q01DX005 (ip), vehicle: saline): 165 % of control and 233 % of control
T/C (dose: 3.7 mg/kg/injection, schedule: Q04DX003 (ip), vehicle: saline): 220 % of control
T/C (dose: 3.75 mg/kg/injection, schedule: Q04DX003 (ip), vehicle: distilled water + Tween-80): 215 % of control
T/C (dose: 4.0 mg/kg/injection, schedule: Q01DX001 (ip), vehicle: suspension in saline): 183 % of control
T/C (dose: 4.0 mg/kg/injection, schedule: Q01DX009 (ip), vehicle: Klucel (hydroxypropylcellulose) (HPC)): 161 % of control
T/C (dose: 4.0 mg/kg/injection, schedule: Q01DX009 (ip), vehicle: saline): 166 % of control
T/C (dose: 4.0 mg/kg/injection, schedule: Q01DX009 (ip), vehicle: suspension in saline): 169 % of control and 238 % of control
T/C (dose: 4.0 mg/kg/injection, schedule: Q04DX003 (ip), vehicle: saline): 199 % of control and 211 % of control and 240 % of control
T/C (dose: 4.0 mg/kg/injection, schedule: Q04DX003 (ip), vehicle: water): 225 % of control
T/C (dose: 4.5 mg/kg/injection, schedule: Q04DX003 (ip), vehicle: saline): 240 % of control
T/C (dose: 5.0 mg/kg/injection, schedule: Q01DX001 (ip), vehicle: saline): 208 % of control
T/C (dose: 5.0 mg/kg/injection, schedule: Q04DX003 (iv), vehicle: saline): 194 % of control
T/C (dose: 5.4 mg/kg/injection, schedule: Q04DX002 (ip), vehicle: saline): 254 % of control
T/C (dose: 6.0 mg/kg/injection, schedule: Q01DX005 (ip), vehicle: saline): 226 % of control
T/C (dose: 6.0 mg/kg/injection, schedule: Q04DX003 (ip), vehicle: Klucel (hydroxypropylcellulose) (HPC)): 117 % of control
T/C (dose: 6.0 mg/kg/injection, schedule: Q04DX003 (ip), vehicle: saline): 218 % of control
T/C (dose: 6.7 mg/kg/injection, schedule: Q01DX001 (ip), vehicle: saline): 185 % of control
T/C (dose: 7.3 mg/kg/injection, schedule: Q04DX003 (ip), vehicle: saline): 239 % of control
T/C (dose: 8.0 mg/kg/injection, schedule: Q01DX009 (ip), vehicle: Klucel (hydroxypropylcellulose) (HPC)): 109 % of control
T/C (dose: 8.0 mg/kg/injection, schedule: Q01DX009 (ip), vehicle: saline): 99 % of control and 100 % of control
T/C (dose: 8.0 mg/kg/injection, schedule: Q01DX009 (ip), vehicle: suspension in saline): 104 % of control and 108 % of control
T/C (dose: 10.0 mg/kg/injection, schedule: Q01DX001 (iv), vehicle: saline): 185 % of control
T/C (dose: 10.0 mg/kg/injection, schedule: Q04DX003 (iv), vehicle: saline): 100 % of control
T/C (dose: 12.5 mg/kg/injection, schedule: Q04DX003 (ip), vehicle: saline): 152 % of control
T/C (dose: 12.6 mg/kg/injection, schedule: Q04DX003 (ip), vehicle: saline): 239 % of control
T/C (dose: 15.0 mg/kg/injection, schedule: Q04DX002 (ip), vehicle: saline): 101 % of control and 109 % of control
T/C (dose: 15.0 mg/kg/injection, schedule: Q04DX003 (ip), vehicle: saline): 108 % of control
T/C (dose: 16.0 mg/kg/injection, schedule: Q04DX003 (ip), vehicle: water): 115 % of control
T/C (dose: 17.5 mg/kg/injection, schedule: Q01DX001 (ip), vehicle: saline): 243 % of control
T/C (dose: 18.9 mg/kg/injection, schedule: Q04DX003 (ip), vehicle: saline): 107 % of control
T/C (dose: 24.0 mg/kg/injection, schedule: Q04DX003 (ip), vehicle: saline): 107 % of control

C(=C\c1ccncc1)/c1ccncc1
T/C (dose: 12.5 mg/kg/injection, schedule: Q01DX009 (ip), vehicle: saline with Tween-80): 90 % of control
T/C (dose: 25.0 mg/kg/injection, schedule: Q01DX009 (ip), vehicle: saline with Tween-80): 90 % of control
T/C [1]: 101 % of control
T/C (dose: 100.0 mg/kg/injection, schedule: Q01DX009 (ip), vehicle: Klucel (hydroxypropylcellulose) (HPC)): 89 % of control
T/C [2]: 107 % of control
T/C (dose: 200.0 mg/kg/injection, schedule: Q01DX009 (ip), vehicle: Klucel (hydroxypropylcellulose) (HPC)): 92 % of control

COC(=O)C1(C(=O)OC)C2C=CCC21 (centres undefined)
T/C [1]: 96 % of control
T/C [2]: 102 % of control
T/C (dose: 200.0 mg/kg/injection, schedule: Q01DX009 (ip), vehicle: saline with Tween-80): 104 % of control
